The values below come from patent publication EP4603105A1, “PHARMACEUTICAL COMPOSITION CONTAINING CYCLIC COMPOUND HAVING SELECTIVE KRAS INHIBITORY EFFECT AGAINST HRAS AND NRAS” (CHUGAI SEIYAKU KABUSHIKI KAISHA, priority 2022, dated 2024).

In experiment [1] the target is GDP-bound NRAS wild-type protein (Homo sapiens, UniProt P01111). Description: Binding to NRAS by surface plasmon resonance (SPR), KD and KD ratio to KRAS. The conditions noted are these: ratio of KD with respect to GDP-bound NRAS wild-type protein to KD with respect to KRAS. Put shortly: (§1)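 Biotinylated GDP-bound RAS was captured at about 100–300 RU. Running buffer: HBS pH 7.4, 10 mM MgCl2, 10 µM GDP, 1 mM DTT, 0.01% Tween 20, 4% DMSO.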
Sequence of GDP-bound NRAS wild-type protein (P01111 whole entry): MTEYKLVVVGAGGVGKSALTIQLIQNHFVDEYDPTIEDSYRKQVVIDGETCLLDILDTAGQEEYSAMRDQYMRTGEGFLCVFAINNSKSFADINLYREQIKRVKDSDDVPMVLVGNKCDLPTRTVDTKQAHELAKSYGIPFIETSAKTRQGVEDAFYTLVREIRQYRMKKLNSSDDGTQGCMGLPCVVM

Experiment [2] addresses GDP-bound KRAS wild-type protein (Homo sapiens, UniProt P01116). Description: Binding to KRAS by surface plasmon resonance (SPR), dissociation constant KD. The conditions noted are these: Single Cycle Kinetics, 1:1 binding model. Put shortly:
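Affinity is measured by surface plasmon resonance at 30°C against captured, GDP-loaded RAS carrying a biotinylated Avi tag. Compounds are titrated by single-cycle kinetics, and KD comes from a 1:1 fit.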

For experiment [3], the system named is human lung cancer strain NCI-H441. Put plainly: NCI-H441 cell proliferation inhibitory activity (CellTiter-Glo, 4 days). The experiment is classed as cell-based. The conditions noted are these: 50% proliferation inhibitory concentration, four days, read-out: NCl-H441 IC50. Put shortly: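 Step one: dispense the test compound in serial DMSO dilutions. Step three: add the reagent and measure […].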

A further experiment addresses HRAS wild-type protein (Homo sapiens, UniProt P01112). Description: Binding to HRAS by surface plasmon resonance (SPR), KD and KD ratio to KRAS. The conditions noted are these: ratio of KD with respect to HRAS wild-type protein to KD with respect to KRAS. The method in brief: as §1

Each structure is given as a SMILES string.

Sequence of HRAS wild-type protein (P01112 whole entry): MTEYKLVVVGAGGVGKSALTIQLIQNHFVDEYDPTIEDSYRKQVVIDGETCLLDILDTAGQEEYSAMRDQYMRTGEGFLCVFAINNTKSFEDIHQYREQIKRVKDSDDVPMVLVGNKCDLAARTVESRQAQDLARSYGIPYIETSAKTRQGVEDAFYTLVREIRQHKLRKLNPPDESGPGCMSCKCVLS
Sequence of GDP-bound KRAS wild-type protein (P01116 1-188 isoform P01116-2): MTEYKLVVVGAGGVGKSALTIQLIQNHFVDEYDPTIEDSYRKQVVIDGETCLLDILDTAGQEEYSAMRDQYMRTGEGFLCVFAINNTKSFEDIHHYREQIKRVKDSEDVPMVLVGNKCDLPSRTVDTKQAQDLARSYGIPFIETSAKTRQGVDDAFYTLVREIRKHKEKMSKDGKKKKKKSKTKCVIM

Take `CCO[C@@H]1C[C@H]2C(=O)NC3(CCCC3)C(=O)N(C)[C@@H](C3CCCC3)C(=O)N(C)[C@H](C(=O)N(C)C)CC(=O)N(C)[C@@H](C)C(=O)N[C@@H]([C@@H](C)CC)C(=O)N(C)CC(=O)N(C)[C@H]3C/C=C\CCN(C3=O)[C@@H](CC3CCC(F)(F)CC3)C(=O)N(C)CC(=O)N[C@@H](CCc3cc(F)c(C(F)(F)F)c(F)c3)C(=O)N2C1` [PP1456]: in experiment [1], the “NRAS /KRAS” value is “A (a compound having 10 or more and less than 20 is denoted as A)”. The compound further yielded a Kd in experiment [2] of 0.12 nM. For the same compound, the IC50 in experiment [3] stood at 90 nM. Besides, at HRAS wild-type protein, the “HRAS /KRAS” value was “A (a compound having 10 or more and less than 20 is denoted as A)”.

On to `CC[C@H](C)[C@@H]1NC(=O)[C@H](CC)N(C)C(=O)C[C@@H](C(=O)N(C)C)N(C)C(=O)[C@H](C2CCCC2)N(C)C(=O)C2(CCC2)NC(=O)[C@@H]2C[C@H](C)CN2C(=O)[C@H](CCc2cc(F)c(C(F)(F)F)c(F)c2)NC(=O)CN(C)C(=O)[C@H](CC2CCC(F)(F)CC2)N2CC/C=C\C[C@@H](C2=O)N(C)C(=O)CN(C)C1=O` [PP1457], for which the “NRAS /KRAS” value in experiment [1] was “A (a compound having 10 or more and less than 20 is denoted as A)”. Moreover, in experiment [2], the affinity, expressed as Kd, was 0.15 nM. Moreover, in experiment [3], the IC50 was determined as 30.4 nM. Also, on HRAS wild-type protein, the “HRAS /KRAS” value is “A (a compound having 10 or more and less than 20 is denoted as A)”.

`CCO[C@@H]1C[C@H]2C(=O)NC3(CCC3)C(=O)N(C)[C@@H](C3CCCC3)C(=O)N(C)[C@H](C(=O)N(C)C)CC(=O)N(C)[C@@H](CC3CCCC3)C(=O)N[C@@H]([C@@H](C)CC)C(=O)N(C)CC(=O)N(C)[C@H]3C/C=C\CCN(C3=O)[C@@H](CC3CCC(F)(F)CC3)C(=O)N(C)CC(=O)N[C@@H](CCc3cc(F)c(C(F)(F)F)c(F)c3)C(=O)N2C1` [PP1458]: the “NRAS /KRAS” value in experiment [1] is “A (a compound having 10 or more and less than 20 is denoted as A)”. This compound had a Kd in experiment [2] of 0.15 nM. In addition, the IC50 in experiment [3] was 18.2 nM. In addition, the “HRAS /KRAS” value at HRAS wild-type protein was “A (a compound having 10 or more and less than 20 is denoted as A)”.

As for `CCO[C@@H]1C[C@H]2C(=O)NC3(CCCC3)C(=O)N(C)[C@@H](C3CCCC3)C(=O)N(C)[C@H](C(=O)N(C)C)CC(=O)N(C)[C@@H](CC(C)C)C(=O)N[C@@H]([C@@H](C)CC)C(=O)N(C)CC(=O)N(C)[C@H]3C/C=C\CCN(C3=O)[C@@H](CC3CCC(F)(F)CC3)C(=O)N(C)CC(=O)N[C@@H](CCc3cc(F)c(C(F)(F)F)c(F)c3)C(=O)N2C1` [PP1459], the “NRAS /KRAS” value in experiment [1] is “A (a compound having 10 or more and less than 20 is denoted as A)”. The compound also registered a Kd in experiment [2] of 0.2 nM. Also, the IC50 in experiment [3] turned out to be 38.6 nM. Also, on HRAS wild-type protein, the “HRAS /KRAS” value was “A (a compound having 10 or more and less than 20 is denoted as A)”.

Consider `CCO[C@@H]1C[C@H]2C(=O)NC3(CCC3)C(=O)N(C)[C@@H](C3CCCC3)C(=O)N(C)[C@H](C(=O)N(C)C)CC(=O)N(C)[C@@H](CC(C)(C)C)C(=O)N[C@@H]([C@@H](C)CC)C(=O)N(C)CC(=O)N(C)[C@H]3C/C=C\CCN(C3=O)[C@@H](CC3CCC(F)(F)CC3)C(=O)N(C)CC(=O)N[C@@H](CCc3cc(F)c(C(F)(F)F)c(F)c3)C(=O)N2C1` [PP1460], for which the “NRAS /KRAS” value in experiment [1] was “A (a compound having 10 or more and less than 20 is denoted as A)”. The Kd in experiment [2] is 0.23 nM. For the same compound, the IC50 in experiment [3] turned out to be 32.9 nM. Also, the “HRAS /KRAS” value at HRAS wild-type protein is “A (a compound having 10 or more and less than 20 is denoted as A)”.

In the case of `CC[C@H](C)[C@@H]1NC(=O)[C@H](CC)N(C)C(=O)C[C@@H](C(=O)N(C)C)N(C)C(=O)[C@H](C2CCCC2)N(C)C(=O)C2(CCC2)NC(=O)[C@@H]2CCCN2C(=O)[C@H](CCc2cc(F)c(C(F)(F)F)c(F)c2)NC(=O)CN(C)C(=O)[C@H](CC2CCC(F)(F)CC2)N2CC/C=C\C[C@@H](C2=O)N(C)C(=O)CN(C)C1=O` [PP1461], the “NRAS /KRAS” value in experiment [1] is “A (a compound having 10 or more and less than 20 is denoted as A)”. In experiment [2], the Kd amounted to 0.27 nM. The IC50 in experiment [3] was 121 nM. In addition, the “HRAS /KRAS” value on HRAS wild-type protein was “A (a compound having 10 or more and less than 20 is denoted as A)”.

On to `CC[C@H](C)[C@@H]1NC(=O)[C@H](CC)N(C)C(=O)C[C@@H](C(=O)N(C)C)N(C)C(=O)[C@H](C2CCCC2)N(C)C(=O)C2(CCC2)NC(=O)[C@@H]2CC(F)(F)CN2C(=O)[C@H](CCc2cc(F)c(C(F)(F)F)c(F)c2)NC(=O)CN(C)C(=O)[C@H](CC2CCCCC2)N2CC/C=C\C[C@@H](C2=O)N(C)C(=O)CN(C)C1=O` [PP1462], for which the “NRAS /KRAS” value in experiment [1] was “A (a compound having 10 or more and less than 20 is denoted as A)”. Also, in experiment [2], the Kd turned out to be 0.12 nM. The IC50 in experiment [3] worked out at 27.5 nM. Also, at HRAS wild-type protein, the “HRAS /KRAS” value is “A (a compound having 10 or more and less than 20 is denoted as A)”.

In the case of `CCO[C@@H]1C[C@H]2C(=O)NC3(CCC3)C(=O)N(C)[C@@H](C3CCCC3)C(=O)N(C)[C@H](C(=O)N(C)C)CC(=O)N(C)[C@@H](CSC)C(=O)N[C@@H]([C@@H](C)CC)C(=O)N(C)CC(=O)N(C)[C@H]3C/C=C\CCN(C3=O)[C@@H](CC3CCCCC3)C(=O)N(C)CC(=O)N[C@@H](CCc3cc(F)c(C(F)(F)F)c(F)c3)C(=O)N2C1` [PP1463], the “NRAS /KRAS” value in experiment [1] was “A (a compound having 10 or more and less than 20 is denoted as A)”. Binding in experiment [2] was put at a Kd of 0.13 nM. For the same compound, the IC50 in experiment [3] came out at 44.5 nM. The “HRAS /KRAS” value at HRAS wild-type protein was “A (a compound having 10 or more and less than 20 is denoted as A)”.

In the case of `CCC[C@H]1C(=O)N[C@@H]([C@@H](C)CC)C(=O)N(C)CC(=O)N(C)[C@H]2C/C=C\CCN(C2=O)[C@@H](CC2CCCCC2)C(=O)N(C)CC(=O)N[C@@H](CCc2cc(F)c(C(F)(F)F)c(F)c2)C(=O)N2C[C@H](OCC)C[C@H]2C(=O)NC2(CCC2)C(=O)N(C)[C@@H](C2CCCC2)C(=O)N(C)[C@H](C(=O)N(C)C)CC(=O)N1C` [PP1464], in experiment [1], the “NRAS /KRAS” value is “A (a compound having 10 or more and less than 20 is denoted as A)”. Further, the Kd in experiment [2] turned out to be 0.15 nM. The IC50 in experiment [3] is 32.3 nM. For the same compound, the “HRAS /KRAS” value at HRAS wild-type protein is “A (a compound having 10 or more and less than 20 is denoted as A)”.

`CC[C@H](C)[C@@H]1NC(=O)[C@H](CC)N(C)C(=O)C[C@@H](C(=O)N(C)C)N(C)C(=O)[C@H](C2CCCC2)N(C)C(=O)C2(CCC2)NC(=O)[C@@H]2C[C@@H](C(F)(F)F)CN2C(=O)[C@H](CCc2cc(F)c(C(F)(F)F)c(F)c2)NC(=O)CN(C)C(=O)[C@H](CC2CCCCC2)N2CC/C=C\C[C@@H](C2=O)N(C)C(=O)CN(C)C1=O` [PP1465]: the “NRAS /KRAS” value in experiment [1] was “A (a compound having 10 or more and less than 20 is denoted as A)”. In experiment [2], this compound yielded a Kd of 0.36 nM. In addition, in experiment [3], the IC50 came to 34.1 nM. For the same compound, the “HRAS /KRAS” value at HRAS wild-type protein was “A (a compound having 10 or more and less than 20 is denoted as A)”.

On to `CCO[C@@H]1C[C@H]2C(=O)NC3(CCC3)C(=O)N(C)[C@@H](C3CCCC3)C(=O)N(C)[C@H](C(=O)N(C)C)CC(=O)N(C)[C@@H](CC(C)C)C(=O)N[C@@H]([C@@H](C)CC)C(=O)N(C)CC(=O)N(C)[C@H]3C/C=C\CCN(C3=O)[C@@H](CC3CCCCC3)C(=O)N(C)CC(=O)N[C@@H](CCc3cc(F)c(C(F)(F)F)c(F)c3)C(=O)N2C1` [PP1467], for which, in experiment [1], the “NRAS /KRAS” value is “A (a compound having 10 or more and less than 20 is denoted as A)”. In experiment [2], the Kd stood at 0.12 nM. The IC50 in experiment [3] is 11.2 nM. For the same compound, at HRAS wild-type protein, the “HRAS /KRAS” value is “A (a compound having 10 or more and less than 20 is denoted as A)”.
